From EP0543245A1, “Renin inhibiting amino acid derivatives” (F. HOFFMANN-LA ROCHE AG, priority 1991, dated 1993)

molecular target: T1, Human-Renin (Homo sapiens, UniProt P00797); test: In vitro test with pure human renin; assay type: biochemical; conditions: human tetradecapeptide renin substrate (hTD), pH 7.4, 3 h at 37°C vs 4°C, angiotensin I measured by RIA, read-out: IC₅₀-Werte
T1 sequence (P00797 67-406): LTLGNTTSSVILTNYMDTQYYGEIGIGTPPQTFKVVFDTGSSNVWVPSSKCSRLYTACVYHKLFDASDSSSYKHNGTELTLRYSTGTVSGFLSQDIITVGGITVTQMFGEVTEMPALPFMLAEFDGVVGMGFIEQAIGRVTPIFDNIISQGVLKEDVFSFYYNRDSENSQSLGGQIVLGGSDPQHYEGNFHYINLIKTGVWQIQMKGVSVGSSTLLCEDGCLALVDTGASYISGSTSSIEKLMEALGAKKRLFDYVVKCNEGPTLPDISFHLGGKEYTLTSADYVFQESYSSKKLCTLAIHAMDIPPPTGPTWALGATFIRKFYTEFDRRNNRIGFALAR
Description: In vitro-Test mit reinem Human-Renin
Der Test wird in Eppendorf Röhrchen durchgeführt. Die Inkubationsmischung besteht aus (1) 100 µl Human-Renin in Puffer A (0,1M Natriumphosphatlösung, pH 7.4, enthaltend 0,1% Rinderserumalbumin, 0,1% Natriumazid und 1 mM Aethylendiamintetraessigsäure), genügend für eine Renin-Aktivität von 2-3 ng Angiotensin I/ ml/Std.; (2) 145 µl Puffer A; (3) 30 µl von 10 µM humanem Tetradekapeptid-Reninsubstrat (hTD) in 10 mM Salzsäure; (4) 15 µl Dimethylsulfoxid mit bzw. ohne Hemmer und (5) 10 µl einer 0,03 molaren Lösung von Hydroxychinolinsulfat in Wasser.
Die Proben werden drei Stunden bei 37°C bzw. 4°C in Triplikaten inkubiert. 2 x 100 µl Proben pro Versuchsröhrchen werden dann verwendet, um die Produktion von Angiotensin I via RIA (standard radioimmunoassay; Clinical Assay solid phase kit) zu messen. Kreuzreaktivitäten der verwendeten Antikörper im RIA sind: Angiotensin I 100%; Angiotensin II 0,0013%; hTD (Angiotensin I-Val-Ile-His-Ser-OH) 0,09%. Die Produktion von Angiotensin I wird durch die Differenz zwischen dem Versuch bei 37°C und demjenigen bei 4°C bestimmt.
Folgende Kontrollen werden mitgeführt: • (a) Inkubation von hTD-Proben ohne Renin und ohne Hemmer bei 37°C und 4°C. Die Differenz zwischen diesen beiden Werten ergibt den Grundwert der Angiotensin I-Produktion. • (b) Inkubation von hTD-Proben mit Renin, jedoch ohne Hemmer bei 37°C und 4°C. Die Differenz zwischen diesen Werten ergibt den Maximalwert der Angiotensin I-Produktion.
In jeder Probe wird von der ermittelten Angiotenin I-Produktion der Grundwert der Angiotensin I-Produktion abgezogen. Die Differenz zwischen dem Maximalwert und dem Grundwert ergibt den Wert der maximalen Substrathydrolyse (=100%) durch Renin.
Die Resultate werden als IC₅₀-Werte angegeben, welche diejenige Konzentration des Hemmers bezeichnen, bei welcher die enzymatische Aktivität um 50% gehemmt wird. Die IC₅₀-Werte werden aus einer linearen Regressionskurve aus einem logit-log plot ermittelt.

| SMILES | IC50 [nM] |
| --- | --- |
| CC(C)Cc1nc(-c2cccnc2)nn2c(C(Cc3cccnc3)C(=O)N[C@@H](CC3CCCCC3)[C@@H](O)[C@@H](O)C3CC3)nnc12 (single isomer, unassigned) [F] | 150 |
| O=C(N[C@@H](CC1CCCCC1)[C@@H](O)[C@@H](O)C1CC1)C(Cc1cscn1)c1nnc2c(C3CC3)nc(-c3cccnc3)cn12 (single isomer, unassigned) [B] | 2 |
| O=C(N[C@@H](CC1CCCCC1)[C@@H](O)[C@@H](O)C1CC1)C(Cc1cccnc1)c1nnc2c(C3CC3)nc(-c3cccnc3)cn12 (single isomer, unassigned) [A] | 51 |
| O=C(N[C@@H](Cc1ccccc1)[C@@H](O)[C@@H](O)C1CC1)C(Cc1cccnc1)c1nnc2c(C3CC3)nc(-c3cccnc3)cn12 (stereo partly drawn) [E, (R,S)-N-[(1S,2R,3S)-1-Benzyl-3-cyclopropyl-2,3-dihydroxypropyl]-8-cyclopropyl-6-(3-pyridyl)-α-(3-pyridylmethyl)-s-triazolo[4,3-a]pyrazin-3-acetamid] | 100 |

Further lines, results first:

| IC50 [nM] | SMILES |
| --- | --- |
| 2.3 | O=C(N[C@@H](CC1CCCCC1)[C@@H](O)[C@@H](O)C1CC1)C(Cc1cscn1)c1nnc2c(CC3CC3)nc(-c3cccnc3)cn12 (single isomer, unassigned) [D] |
| 16 | C=CCC(C(=O)N[C@@H](CC1CCCCC1)[C@@H](O)[C@@H](O)C1CC1)c1nnc2c(CCC)nc(-c3cccnc3)cn12 (stereo partly drawn) [G, (R,S)-α-Allyl-N-[(1S,2R,3S)-1-(cyclohexylmethyl)3-cyclopropyl-2,3-dihydroxypropyl]-8-propyl-6-(3-pyridyl)-s-triazolo[4,3-a]pyrazin-3-acetamid] |
| 17 | O=C(N[C@@H](CC1CCCCC1)[C@@H](O)[C@@H](O)C1CC1)C(Cc1cccnc1)c1nnc2c(CC3CC3)nc(-c3cccnc3)cn12 (single isomer, unassigned) [C] |
